Laboratory results from US20210122746A1, “FEBRIFUGINE DERIVATIVES” (BRISTOL-MYERS SQUIBB COMPANY, priority 2017, published 2021).
Where a name gives a salt, the structure may show the parent alone.

How the values were obtained:
[1] = molecular target: T1, human ProRS (prolyl tRNA synthetase moiety of glutamyl prolyl tRNA synthetase) (Homo sapiens, UniProt P07814); experiment: Assay for inhibitors of prolyl tRNA synthetase activity (ProRS assay, labeled proline incorporation); format: biochemical; conditions: ProRS 20 nM, compounds 10 μM to 0.5 nM, 10 min at 37° C.; read-out: EPR IC50
T1 construct: The prolyl tRNA synthetase moiety (ProRS) in the cDNA of glutamyl prolyl tRNA synthetase was subcloned; 6xHis (N, cleaved yes); made in house; host or cells: E. coli BL21 (DE3)
T1 sequence (P07814 1007-1512 limits assumed): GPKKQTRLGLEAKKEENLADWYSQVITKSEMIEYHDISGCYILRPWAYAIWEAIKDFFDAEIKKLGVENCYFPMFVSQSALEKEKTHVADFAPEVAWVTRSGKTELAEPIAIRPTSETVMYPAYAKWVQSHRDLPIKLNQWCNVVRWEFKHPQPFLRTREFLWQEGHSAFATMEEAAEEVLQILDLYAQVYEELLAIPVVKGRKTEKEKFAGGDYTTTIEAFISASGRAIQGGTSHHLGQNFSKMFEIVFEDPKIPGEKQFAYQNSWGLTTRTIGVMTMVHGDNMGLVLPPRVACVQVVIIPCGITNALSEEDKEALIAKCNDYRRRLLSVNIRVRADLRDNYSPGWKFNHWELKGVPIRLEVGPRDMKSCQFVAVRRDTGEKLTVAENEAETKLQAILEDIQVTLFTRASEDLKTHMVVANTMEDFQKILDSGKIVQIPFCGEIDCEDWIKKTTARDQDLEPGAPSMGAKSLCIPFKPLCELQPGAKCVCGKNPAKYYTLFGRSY
From the text: In order to establish the activities of the compounds highlighted above, we determined extent of inhibition of prolyl tRNA synthetase activity in dose response curves to obtain IC50 values.
The prolyl tRNA synthetase moiety (ProRS) in the cDNA of glutamyl prolyl tRNA synthetase was subcloned, tagged with a single biotin, purified and used in the assay. Briefly, human ProRS with a 6× N-terminal His tag in pET28N with TVMV BioP was transformed in E. coli BL21 (DE3) cells, selected, overexpressed and purified using a Ni Seph 6 FF XK 16/20 column in the first stage. Ni-NTA eluates were pooled and treated with TVMV protease, and biotinylated using d-Biotin, MgCl2, ATP and the BirA enzyme. This was rerun through a Ni column as before. The eluates were further enriched and purified using membrane ultrafiltration and a SuperDex 200 XK 16/60 column, and peak fractions were confirmed by SDS-PAGE prior to protein amount determination, aliquoting and storage at −80° C.
ProRS assay was performed in 96 well plates in a final reaction volume of 20 μl, using staggered additions of Tris-Cl (pH 7.5, 60 mM), dithiothreitol (2 mM), ATP (5 mM, pH 7.0), MgCl2 6 mM), ProRS (20 nM, with pre-determined active fraction range) and bovine tRNA (20 μg). Controls and compounds, at various concentrations (10 μM to 0.5 nM), were incubated on ice with enzyme mix for 15 min followed by addition of proline (non-labeled and labeled, 3.96 and 1.04 μM (1 μCi) respectively) to initiate the reaction. Reaction was carried out for 10 min at 37° C. and terminated by addition of TCA (10%, 100 μl). Reaction mix was collected on a Whatman GF/B filter using a vacuum filtration manifold. This filter was washed 3 times with 5% TCA followed by 2 washes with ethanol, air dried, and read using a liquid scintillation counter (TopCount NXT) using MicroScint O. IC50 values were calculated and analyzed using ToolSet (4-parameter plot) and depicted herein.

[2] = system: Rat hepatocytes; experiment: GSH trapping assay; format: in vitro ADME; conditions: 30 μM, 24 hr incubation, LC-MS detection of GSH adducts
Method: Rat hepatocytes were isolated from male Sprague-Dawley rats (Vivo Biotech Ltd, HYD, India), weighing 230 to 280 g by the two step collagenase perfusion method (seglen, 1976; Berry M N and Friend D S.1969). Rat hepatocytes were cultured in Dulbecco's Modified Eagle's Medium (DMEM, Gibco®, USA) supplemented with 10^−6M dexamethasone (Gibco®), 5% fetal bovine serum (Gibco®) and cocktail-A mix (CM3000, Gibco®) containing HEPES buffer (PH 7.4), GlutaMAX™, human recombinant insulin, penicillin and streptomycin. Initial cell viability assessed by Trypanblue stain 0.4% (Sigma, UK) and viability more than 80% were considered for culturing. Hepatocytes were seeded in 96 well type-I collagen coated plates (Gibco®) at 4×10^4 cells/well in 100 μL of the culture medium and incubated at 37° C. in 5% CO2 and 95% relative humidity (RH) for 4 hr of cell attachment.
After 4hr incubation, rat hepatocytes were washed twice with pre-warmed (37° C.) DMEM incubation medium supplemented with 10^−7M dexamethasone and cell maintenance cocktail-B (CM4000, Gibco®) solution to remove unattached cells. Post washing hepatocytes were treated with test and reference compounds in incubation medium at single concentration (30 μM) in duplicate and incubate further for 24 hr at 37° C. with 5% CO2 and 95% RH. The final concentration of DMSO in medium was 0.5%.
Post 24 hr incubation, hepatocyte samples were quenched with equal volumes of acetonitrile containing 0.1% formic acid followed by vortex mix, sonicate and centrifuge at 12000 rpm at room temperature for 5 min. Supernatant samples were analyzed for GSH adducts on a C18 reverse-phase column (Xbridge™ Shield, C18, 4.6×150 mm, 3.5 μm) with solvent A (10 mM ammonium formate and 0.1% formic acid/water) and solvent B (0.1% formic acid/acetonitrile).
The column was eluted with 5% B for 5 min and then with a linear gradient to 20% B over 10 min and it was maintained upto 15 min, then it was increased linearly to 40% B upto 27 min and then increase to 90% B upto 29 min, and then equilibrate back the column to 5% B upto 33 min at a flow rate of 0.6 ml/min. The column effluent was directed into the ESI source of a LTQ Velos Orbitrap mass spectrometer (Thermo Fisher Scientific, San Jose, Calif.). The ESI conditions were as follows: sheath gas flow rate, 40 arbitrary units; auxiliary gas, 30 arbitrary units; spray voltage, 4.5 kV; capillary temperature, 230° C.; capillary voltage, 30 V; and tube lens offset, 25 V. Data were acquired in positive ion mode using Xcalibur software (Thermo Fisher Scientific) with one full scan followed by two data-dependent scans of the most intense and the second most intense ions. During the data interpretation the characteristic fragments of neutral loss of glycine (75.0320 Da), pyroglutamic acid (129.0426 Da) and loss of neutral moiety GSH (307.0838 Da) and/or a specific fragment of (GSH+H)^+ (m/z 308.0911) were monitored. Finally, the fragments ions with m/z e.g. 179.0485, 177.0328 and 162.0219 Da, which were derived from the glutathione moiety were used to report GSH positive results.

IC50 [1] [nM]	GSH adduct formation [2]	Compound
28	Negative	Cc1cc(C)c2ncn(CC(=O)C[C@H]3NCCC[C@@H]3O)c(=O)c2n1 [Example 1, 3-{3-[(2R,3S)-3-Hydroxypiperidin-2-yl]-2-oxopropyl}-6,8-dimethylpyrido[3,2-d]pyrimidin-4(3H)-one dihydrochloride]
15	Negative	O=C(C[C@H]1NCCC[C@@H]1O)Cn1cnc2cccnc2c1=O [Example 2, 3-{3-[(2R,3S)-3-Hydroxypiperidin-2-yl]-2-oxopropyl}pyrido[3,2-d]pyrimidin-4(3H)-one dihydrochloride]
773	Negative	Cc1cc(C)c2ncn(CC(=O)C[C@@H]3CCCCN3)c(=O)c2n1.Cl.Cl [Example 10, (S)-6,8-dimethyl-3-(2-oxo-3-(piperidin-2-yl)propyl)pyrido[3,2-d]pyrimidin-4(3H)-one dihydrochloride]
28	Negative	O=c1c2nc(-c3cccc(C(F)(F)F)c3)ccc2ncn1C[C@@H](O)C[C@H]1NCCC[C@@H]1O [Example 23, 3-{(S)-2-Hydroxy-3-[(2R,3S)-3-hydroxypiperidin-2-yl]propyl}-6-[3-(trifluoromethyl)phenyl]pyrido[3,2-d]pyrimidin-4(3H)-one dihydrochloride]
416	Negative	Cc1cc(C(F)(F)F)nc2c(=O)n(C[C@@H](O)C[C@H]3NCCC[C@@H]3O)cnc12 [Example 31, 3-{(S)-2-hydroxy-3-[(2R,3S)-3-hydroxypiperidin-2-yl]propyl}-8-methyl-6-(trifluoromethyl)pyrido[3,2-d]pyrimidin-4(3H)-one bis(2,2,2-trifluoroacetic acid)]
301	Negative	Cc1cc(Cl)cn2c(=O)c(NC(=O)C[C@H]3NCCC[C@@H]3O)cnc12.Cl [Example 39, N-(7-Chloro-9-methyl-4-oxo-4H-pyrido [1,2-a]pyrimidin-3-yl)-2-[(2R, 3S)-3-hydroxypiperidin-2-yl]acetamide hydrochloride]
